ChEMBL document CHEMBL3046327, “Nicotinic acid hydrazones: a novel anticonvulsant pharmacophore” (Med Chem Res, 2011)
Active and inactive are the calls of the source. No cut-off for these calls is given here.

Assays:
[1] = system: Mus musculus; assay: Neurotoxicity in Mus musculus C57B/6 (mouse) assessed motor impairment at 300 mg/kg, ip after 4 hr by rotarod test; format: toxicity, organism-based; design: dose 300 mg/kg, route intraperitoneal; conditions: in vivo
[2] = system: Mus musculus; assay: Anticonvulsant activity in Mus musculus C57B/6 (mouse) assessed protection against subcutaneous pentylenetetrazole-induced seizures at 300 mg/kg, ip after 0.5 hr; format: functional, organism-based; design: dose 300 mg/kg
[3] = system: Mus musculus; assay: Anticonvulsant activity in Mus musculus C57B/6 (mouse) assessed protection against maximal electroshock-induced seizures at 300 mg/kg, ip after 0.5 hr; format: functional, organism-based; design: dose 300 mg/kg
[4] = system: Mus musculus; assay: Anticonvulsant activity in Mus musculus C57B/6 (mouse) assessed protection against subcutaneous pentylenetetrazole-induced seizures at 300 mg/kg, ip after 4 hr; format: functional, organism-based; design: dose 300 mg/kg
[5] = system: Mus musculus; assay: Anticonvulsant activity in Mus musculus C57B/6 (mouse) assessed protection against maximal electroshock-induced seizures at 300 mg/kg, ip after 4 hr; format: functional, organism-based; design: dose 300 mg/kg
[6] = system: Mus musculus; assay: Neurotoxicity in Mus musculus C57B/6 (mouse) assessed motor impairment at 300 mg/kg, ip after 0.5 hr by rotarod test; format: toxicity, organism-based; design: dose 300 mg/kg, route intraperitoneal; conditions: in vivo
[7] = system: Mus musculus; assay: Neurotoxicity in ip dosed Mus musculus C57B/6 (mouse) assessed motor impairment after 4 hr by rotarod test; format: toxicity, organism-based; conditions: in vivo
[8] = system: Mus musculus; assay: Anticonvulsant activity in ip dosed Mus musculus C57B/6 (mouse) assessed protection against maximal electroshock-induced seizures after 0.5 hr; format: functional; conditions: C57B/6, ip, read-out: MED
[9] = system: Mus musculus; assay: Anticonvulsant activity in ip dosed Mus musculus C57B/6 (mouse) assessed protection against maximal electroshock-induced seizures after 4 hr; format: functional; conditions: C57B/6, ip, read-out: MED
[10] = system: Mus musculus; assay: Neurotoxicity in ip dosed Mus musculus C57B/6 (mouse) assessed motor impairment after 0.5 hr by rotarod test; format: toxicity, organism-based; conditions: in vivo
[11] = Neurotoxicity in ip dosed Mus musculus C57B/6 (mouse) assessed motor impairment by rotarod test; format: toxicity, organism-based; conditions: in vivo
[12] = system: Mus musculus; assay: Anticonvulsant activity in ip dosed Mus musculus C57B/6 (mouse) assessed protection against 6 Hz psychomotor seizure by minimal clonic seizure test; format: functional; conditions: C57B/6, ip
[13] = system: Mus musculus; assay: Anticonvulsant activity in ip dosed Mus musculus C57B/6 (mouse) assessed protection against 6 Hz psychomotor seizure after 0.5 hr by minimal clonic seizure test; format: functional; conditions: C57B/6, ip, read-out: MED
[14] = species on record: Mus musculus; assay: Protective index, ratio of TD50 for Mus musculus C57B/6 (mouse) to ED50 for Mus musculus C57B/6 (mouse) assessed protection against 6 Hz psychomotor seizure by minimal clonic seizure test; format: functional
[15] = system: Mus musculus; assay: Anticonvulsant activity in ip dosed Mus musculus C57B/6 (mouse) assessed protection against 6 Hz psychomotor seizure after 0.25 hr by minimal clonic seizure test; format: functional; conditions: C57B/6, ip, read-out: MED
[16] = species on record: Rattus norvegicus; assay: Protective index, ratio of TD50 for Rattus norvegicus Sprague-Dawley (rat) to ED50 for Rattus norvegicus Sprague-Dawley (rat) assessed protection against 6 Hz psychomotor seizure by minimal clonic seizure test; format: functional
[17] = system: Rattus norvegicus; assay: Anticonvulsant activity in po dosed Rattus norvegicus Sprague-Dawley (rat) assessed protection against 6 Hz psychomotor seizure by minimal clonic seizure test; format: functional
[18] = Neurotoxicity in po dosed Rattus norvegicus Sprague-Dawley (rat) assessed motor impairment by rotarod test; format: toxicity, organism-based; conditions: in vivo

SMILES | Activity [1] | Activity [2] | Activity [3] | Activity [4] | Activity [5] | Activity [6] | Activity [7] [mg/kg] | minimal effective dose [8] [mg/kg] | minimal effective dose [9] [mg/kg] | Activity [10] [mg/kg] | TD50 [11] [mg/kg] | ED50 [12] [mg/kg] | minimal effective dose [13] [mg/kg] | Ratio TD50/ED50 [14] | minimal effective dose [15] [mg/kg] | Ratio TD50/ED50 [16] | ED50 [17] [mg/kg] | TD50 [18] [mg/kg]
O=C(N/N=C/c1ccc(Cl)cc1)c1ccccc1 | Non-toxic | inactive | inactive | inactive | inactive | Non-toxic |  |  |  |  |  |  |  |  |  |  |  | 
O=C1NC(=O)C(c2ccccc2)(c2ccccc2)N1 [PHENYTOIN] |  | inactive |  | inactive |  |  | 100 | 30 | 30 | 100 |  |  |  |  |  |  |  | 
O=C(N/N=C/c1ccccc1F)c1ccncc1 | Non-toxic | inactive | inactive | inactive | inactive | Non-toxic |  |  |  |  |  |  |  |  |  |  |  | 
O=C(N/N=C/c1cccc(Cl)c1)c1cccnc1 | Non-toxic | inactive |  | inactive | inactive | Non-toxic |  | 300 |  |  | > 500 | 80 | 40 | >6.25 |  |  |  | 
O=C(N/N=C/c1ccccc1Br)c1ccncc1 | Non-toxic | inactive | inactive | inactive | inactive | Non-toxic |  |  |  |  |  |  |  |  |  |  |  | 
O=C(N/N=C/c1ccc(Cl)cc1)c1cccnc1 | Non-toxic | inactive |  | inactive | inactive | Non-toxic |  | 100 |  |  | > 325 | 16.1 | 12.5 | >20 | 12.5 | >10 | 31.4 | > 320
O=C(N/N=C/c1ccccc1F)c1ccccc1 | Non-toxic | inactive | inactive | inactive | inactive | Non-toxic |  |  |  |  |  |  |  |  |  |  |  | 
O=C(N/N=C/c1ccc(O)cc1)c1cccnc1 | Non-toxic | inactive | inactive | inactive | inactive | Non-toxic |  |  |  |  |  |  |  |  |  |  |  | 
Cc1ccc(C(=O)N/N=C/c2ccc([N+](=O)[O-])cc2)cc1 | Non-toxic | inactive | inactive | inactive | inactive | Non-toxic |  |  |  |  |  |  |  |  |  |  |  | 
O=C(N/N=C/c1cccc(Cl)c1)c1ccccc1 | Non-toxic | inactive | inactive | inactive | inactive | Non-toxic |  |  |  |  |  |  |  |  |  |  |  | 
O=C(N/N=C/c1ccc(Cl)cc1)c1ccncc1 |  | inactive |  | inactive |  |  | 100 | 100 | 100 | 100 |  |  |  |  |  |  |  | 
Cc1ccc(C(=O)N/N=C/c2cccc(Cl)c2)cc1 | Non-toxic | inactive | inactive | inactive |  | Non-toxic |  |  | 100 |  |  |  |  |  |  |  |  | 
O=C(N/N=C/c1cccc(Br)c1)c1cccnc1 | Non-toxic | inactive |  | inactive | inactive | Non-toxic |  | 100 |  |  | > 520 | 47.2 | 35 | >11 | 35 |  |  | 
Cc1ccc(C(=O)N/N=C/c2cccc(Br)c2)cc1 | Non-toxic | inactive | inactive | inactive | inactive | Non-toxic |  |  |  |  |  |  |  |  |  |  |  | 
Cc1ccc(C(=O)N/N=C/c2ccc(Cl)cc2)cc1 | Non-toxic | inactive | inactive | inactive | inactive | Non-toxic |  |  |  |  |  |  |  |  |  |  |  | 
O=C(N/N=C/c1ccccc1[N+](=O)[O-])c1ccncc1 | Non-toxic | inactive | inactive | inactive | inactive | Non-toxic |  |  |  |  |  |  |  |  |  |  |  | 
O=C(N/N=C/c1cccc(Br)c1)c1ccncc1 | Non-toxic | inactive | inactive | inactive | inactive | Non-toxic |  |  |  |  |  |  |  |  |  |  |  | 
O=C(N/N=C/c1ccc(O)cc1)c1ccccc1 | Non-toxic | inactive | inactive | inactive | inactive | Non-toxic |  |  |  |  |  |  |  |  |  |  |  | 
O=C(N/N=C/c1cccc(Cl)c1)c1ccncc1 [N'-(3-CHLOROBENZYLIDENE)ISONICOTINOHYDRAZIDE] | Non-toxic | inactive |  | inactive | inactive | Non-toxic |  | 300 |  |  |  |  |  |  |  |  |  | 
O=C(N/N=C/c1cccc(Br)c1)c1ccccc1 | Non-toxic | inactive | inactive | inactive | inactive | Non-toxic |  |  |  |  |  |  |  |  |  |  |  | 
O=C(N/N=C/c1ccc([N+](=O)[O-])cc1)c1ccncc1 [N'-(4-NITROBENZYLIDENE)ISONICOTINOHYDRAZIDE] | Non-toxic | inactive | inactive | inactive | inactive | Non-toxic |  |  |  |  |  |  |  |  |  |  |  | 
